Each structure is given as a SMILES string. Substitutions are numbered along the chain they refer to. Some results are limits rather than exact numbers.

These results are taken from ChEMBL document CHEMBL2380197, “Discovery of ML326: The first sub-micromolar, selective M5 PAM” (Bioorg Med Chem Lett, 2013).

Experiment [1] has as its target T1, Muscarinic acetylcholine receptor M5 (Homo sapiens) (UniProt P08912).
T1 sequence (whole entry): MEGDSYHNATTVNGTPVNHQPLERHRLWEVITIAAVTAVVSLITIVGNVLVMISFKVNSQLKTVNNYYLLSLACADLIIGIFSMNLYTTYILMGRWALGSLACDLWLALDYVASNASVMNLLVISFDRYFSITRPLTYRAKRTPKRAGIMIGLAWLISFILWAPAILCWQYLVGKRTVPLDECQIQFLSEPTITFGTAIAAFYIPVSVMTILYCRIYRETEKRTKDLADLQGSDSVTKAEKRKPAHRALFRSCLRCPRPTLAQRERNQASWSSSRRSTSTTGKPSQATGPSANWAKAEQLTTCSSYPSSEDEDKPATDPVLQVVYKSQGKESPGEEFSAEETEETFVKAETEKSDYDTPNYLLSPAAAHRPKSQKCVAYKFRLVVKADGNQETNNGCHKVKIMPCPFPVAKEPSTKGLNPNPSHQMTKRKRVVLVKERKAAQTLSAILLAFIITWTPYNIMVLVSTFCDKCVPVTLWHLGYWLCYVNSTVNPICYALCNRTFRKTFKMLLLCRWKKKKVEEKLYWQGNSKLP
Put plainly: Positive allosteric modulation of human muscarinic M5 receptor relative to acetylcholine.

Experiment [2] addresses T2, Muscarinic acetylcholine receptor M5 (Homo sapiens, UniProt P08912).
T2 sequence (P08912 whole entry): T1 sequence (whole entry)
The experiment in a line: Positive allosteric modulation of human muscarinic M5 receptor.

Experiment [3] deals with Muscarinic acetylcholine receptor M3 (Rattus norvegicus, UniProt P08483). Put plainly: Positive allosteric modulation of rat muscarinic M3 receptor.
Experiment [4] concerns the target T3, Muscarinic acetylcholine receptor M4 (Rattus norvegicus, UniProt P08485).
T3 sequence (P08485 whole entry): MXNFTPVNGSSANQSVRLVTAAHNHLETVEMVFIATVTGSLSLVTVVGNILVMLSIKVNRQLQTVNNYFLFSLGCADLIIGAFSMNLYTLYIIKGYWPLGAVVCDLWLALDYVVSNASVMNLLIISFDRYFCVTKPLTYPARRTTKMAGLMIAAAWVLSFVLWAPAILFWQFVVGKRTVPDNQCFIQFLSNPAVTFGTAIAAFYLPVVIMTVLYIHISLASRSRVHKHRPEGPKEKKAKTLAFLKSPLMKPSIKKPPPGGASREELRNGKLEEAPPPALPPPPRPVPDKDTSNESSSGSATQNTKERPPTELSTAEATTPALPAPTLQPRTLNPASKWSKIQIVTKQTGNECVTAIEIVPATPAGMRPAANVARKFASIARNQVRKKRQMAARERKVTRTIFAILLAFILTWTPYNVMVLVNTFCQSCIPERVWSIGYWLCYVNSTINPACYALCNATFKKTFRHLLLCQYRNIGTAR
The experiment in a line: Positive allosteric modulation of rat muscarinic M4 receptor.

The target in experiment [5] is T4, Muscarinic acetylcholine receptor M2 (Rattus norvegicus, UniProt P10980).
T4 sequence (P10980 whole entry): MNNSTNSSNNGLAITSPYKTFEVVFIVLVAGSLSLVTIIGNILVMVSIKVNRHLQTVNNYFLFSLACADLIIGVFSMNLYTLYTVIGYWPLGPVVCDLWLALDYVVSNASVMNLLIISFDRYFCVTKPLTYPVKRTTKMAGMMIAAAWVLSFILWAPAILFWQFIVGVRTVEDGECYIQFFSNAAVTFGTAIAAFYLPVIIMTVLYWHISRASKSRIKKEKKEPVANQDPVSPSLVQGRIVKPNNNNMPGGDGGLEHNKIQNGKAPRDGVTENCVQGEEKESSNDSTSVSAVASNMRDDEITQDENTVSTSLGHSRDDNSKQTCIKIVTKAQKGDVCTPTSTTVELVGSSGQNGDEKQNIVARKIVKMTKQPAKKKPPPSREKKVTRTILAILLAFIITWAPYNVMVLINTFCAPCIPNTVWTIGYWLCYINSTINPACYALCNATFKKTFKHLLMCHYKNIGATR
Put plainly: Positive allosteric modulation of rat muscarinic M2 receptor.

In experiment [6] the target is T5, Muscarinic acetylcholine receptor M1 (Rattus norvegicus, UniProt P08482).
T5 sequence (P08482 whole entry): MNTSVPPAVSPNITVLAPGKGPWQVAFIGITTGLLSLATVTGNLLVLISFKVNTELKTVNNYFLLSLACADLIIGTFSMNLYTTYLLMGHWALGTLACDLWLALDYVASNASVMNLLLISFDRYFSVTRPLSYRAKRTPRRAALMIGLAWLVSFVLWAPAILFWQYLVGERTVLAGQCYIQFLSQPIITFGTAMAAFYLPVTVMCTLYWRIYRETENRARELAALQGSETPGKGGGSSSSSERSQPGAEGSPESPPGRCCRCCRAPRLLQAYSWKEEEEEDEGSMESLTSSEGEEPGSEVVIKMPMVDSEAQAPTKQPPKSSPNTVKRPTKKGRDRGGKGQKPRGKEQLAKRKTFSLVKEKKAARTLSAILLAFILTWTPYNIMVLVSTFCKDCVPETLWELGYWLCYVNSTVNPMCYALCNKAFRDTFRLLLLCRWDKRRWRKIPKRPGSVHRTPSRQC
Put plainly: Positive allosteric modulation of rat muscarinic M1 receptor.

Experiment [7] concerns the target T6, Muscarinic acetylcholine receptor M5 (Rattus norvegicus) (UniProt P08911).
T6 sequence (whole entry): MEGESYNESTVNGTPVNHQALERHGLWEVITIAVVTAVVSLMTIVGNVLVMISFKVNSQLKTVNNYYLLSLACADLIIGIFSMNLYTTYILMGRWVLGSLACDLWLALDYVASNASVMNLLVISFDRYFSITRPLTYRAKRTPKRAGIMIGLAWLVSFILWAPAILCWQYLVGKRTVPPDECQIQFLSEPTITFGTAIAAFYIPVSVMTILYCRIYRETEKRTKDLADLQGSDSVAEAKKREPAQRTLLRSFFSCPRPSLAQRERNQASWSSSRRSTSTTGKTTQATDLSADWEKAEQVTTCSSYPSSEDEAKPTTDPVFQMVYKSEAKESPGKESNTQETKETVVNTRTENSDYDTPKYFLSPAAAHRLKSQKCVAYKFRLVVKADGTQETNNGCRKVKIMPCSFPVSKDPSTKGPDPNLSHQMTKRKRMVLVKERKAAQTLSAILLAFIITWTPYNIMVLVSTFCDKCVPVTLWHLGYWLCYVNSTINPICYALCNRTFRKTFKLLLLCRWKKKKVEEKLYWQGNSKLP
Put plainly: Positive allosteric modulation of rat muscarinic M5 receptor relative to acetylcholine.

Experiment [8] has as its target Muscarinic acetylcholine receptor M3 (Homo sapiens, UniProt P20309). The experiment in a line: Positive allosteric modulation of human muscarinic M3 receptor.
Experiment [9] addresses T7, Muscarinic acetylcholine receptor M4 (Homo sapiens, UniProt P08173).
T7 sequence (P08173 whole entry): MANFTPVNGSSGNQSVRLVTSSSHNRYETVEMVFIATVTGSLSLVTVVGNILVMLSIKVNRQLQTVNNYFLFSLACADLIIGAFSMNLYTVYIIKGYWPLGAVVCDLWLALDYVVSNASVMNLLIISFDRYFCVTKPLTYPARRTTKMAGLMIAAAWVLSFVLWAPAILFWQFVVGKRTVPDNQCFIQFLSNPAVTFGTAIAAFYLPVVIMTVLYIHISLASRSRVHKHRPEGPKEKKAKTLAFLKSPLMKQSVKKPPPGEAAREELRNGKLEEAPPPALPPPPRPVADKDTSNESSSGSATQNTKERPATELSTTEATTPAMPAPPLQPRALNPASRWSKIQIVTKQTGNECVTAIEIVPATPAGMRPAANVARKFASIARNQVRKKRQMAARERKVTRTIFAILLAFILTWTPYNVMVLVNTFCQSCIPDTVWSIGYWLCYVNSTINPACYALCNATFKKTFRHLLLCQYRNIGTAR
The experiment in a line: Positive allosteric modulation of human muscarinic M4 receptor.

Experiment [10] deals with T8, Muscarinic acetylcholine receptor M2 (Homo sapiens, UniProt P08172).
T8 sequence (P08172 whole entry): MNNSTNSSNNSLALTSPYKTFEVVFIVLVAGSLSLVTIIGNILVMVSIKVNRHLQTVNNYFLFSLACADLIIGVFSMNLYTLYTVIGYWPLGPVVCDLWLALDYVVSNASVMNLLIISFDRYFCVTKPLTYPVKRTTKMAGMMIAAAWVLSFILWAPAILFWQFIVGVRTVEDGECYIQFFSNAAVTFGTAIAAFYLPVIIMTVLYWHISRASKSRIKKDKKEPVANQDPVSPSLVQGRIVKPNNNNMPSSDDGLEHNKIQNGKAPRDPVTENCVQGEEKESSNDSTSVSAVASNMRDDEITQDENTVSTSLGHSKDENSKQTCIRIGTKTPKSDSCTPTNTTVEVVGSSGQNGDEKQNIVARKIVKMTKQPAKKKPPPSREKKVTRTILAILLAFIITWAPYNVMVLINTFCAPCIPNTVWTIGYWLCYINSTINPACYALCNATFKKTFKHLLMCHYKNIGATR
The experiment in a line: Positive allosteric modulation of human muscarinic M2 receptor.

Experiment [11] concerns the target T9, Muscarinic acetylcholine receptor M1 (Homo sapiens, UniProt P11229).
T9 sequence (P11229 whole entry): T5 sequence (P08482 whole entry) with V5A, S254T, S309P, K320R, G337A, V413I
Put plainly: Positive allosteric modulation of human muscarinic M1 receptor.

In experiment [12] the target is T1, Muscarinic acetylcholine receptor M5 (Homo sapiens). Put plainly: Positive allosteric modulation of human muscarinic M5 receptor assessed as fold shift of acetylcholine-induced response at 30 uM.
The target is the same in experiment [13]. The experiment in a line: Positive allosteric modulation of human muscarinic M5 receptor at 3 uM relative to acetylcholine.

Sequence of Muscarinic acetylcholine receptor M3 (Homo sapiens, UniProt P20309) (P20309 whole entry): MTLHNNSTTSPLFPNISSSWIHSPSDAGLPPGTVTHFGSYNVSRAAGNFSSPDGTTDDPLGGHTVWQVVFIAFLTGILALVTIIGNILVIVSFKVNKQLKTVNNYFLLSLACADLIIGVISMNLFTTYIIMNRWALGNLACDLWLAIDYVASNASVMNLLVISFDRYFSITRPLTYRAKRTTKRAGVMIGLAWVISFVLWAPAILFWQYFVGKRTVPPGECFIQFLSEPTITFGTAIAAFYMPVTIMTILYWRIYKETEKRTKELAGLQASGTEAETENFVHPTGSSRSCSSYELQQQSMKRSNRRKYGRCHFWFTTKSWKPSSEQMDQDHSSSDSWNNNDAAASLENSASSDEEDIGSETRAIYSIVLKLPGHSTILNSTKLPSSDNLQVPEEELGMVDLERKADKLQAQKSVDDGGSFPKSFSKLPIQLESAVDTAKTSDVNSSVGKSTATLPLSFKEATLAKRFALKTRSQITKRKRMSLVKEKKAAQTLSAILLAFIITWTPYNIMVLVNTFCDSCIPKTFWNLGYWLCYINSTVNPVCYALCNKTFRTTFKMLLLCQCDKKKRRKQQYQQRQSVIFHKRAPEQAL
Sequence of Muscarinic acetylcholine receptor M3 (Rattus norvegicus, UniProt P08483) (P08483 whole entry): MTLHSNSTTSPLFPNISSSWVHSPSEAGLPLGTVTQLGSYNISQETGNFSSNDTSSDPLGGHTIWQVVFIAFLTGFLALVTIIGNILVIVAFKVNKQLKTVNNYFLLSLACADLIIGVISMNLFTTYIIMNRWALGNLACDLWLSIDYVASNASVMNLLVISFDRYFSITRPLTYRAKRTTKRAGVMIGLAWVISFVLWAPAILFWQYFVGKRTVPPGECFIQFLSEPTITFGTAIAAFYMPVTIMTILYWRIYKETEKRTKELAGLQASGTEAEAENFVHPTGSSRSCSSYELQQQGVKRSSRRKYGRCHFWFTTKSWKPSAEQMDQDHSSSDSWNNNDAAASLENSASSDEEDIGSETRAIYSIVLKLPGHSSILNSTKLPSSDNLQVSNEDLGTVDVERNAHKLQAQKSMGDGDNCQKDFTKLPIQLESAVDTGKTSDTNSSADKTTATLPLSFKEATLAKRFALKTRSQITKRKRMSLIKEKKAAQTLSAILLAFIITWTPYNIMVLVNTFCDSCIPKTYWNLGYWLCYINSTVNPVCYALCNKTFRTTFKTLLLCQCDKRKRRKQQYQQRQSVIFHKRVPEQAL

The Emax is the greatest response seen or fitted, relative to the assay's reference. Usually EC50 stands for the midpoint of the concentration-response curve. Low readings indicate an effect from little substance, high ones a need for much substance. For the compound `COc1ccc(OCCN2C(=O)C(=O)c3cc(OC(F)(F)F)ccc32)cc1`, in experiment [1], the Emax is 89%. In addition, the EC50 in experiment [2] came to 0.59 µM.

In the case of `O=C1C(=O)N(CCOc2ccccc2)c2ccc(OC(F)(F)F)cc21`, the EC50 in experiment [3], in [4], in experiment [5], in experiment [6], in experiment [8] and in experiment [9] was greater than 30 µM in each case. The EC50 was greater than 30 µM in [10], greater than 30 µM in [11] and 0.41 µM in [2]. The fold change (FC) in experiment [7] and in experiment [12] was 20 each time. This compound also returned an Emax in [1] of 91%.

As for `COc1ccc(CN2C(=O)C(O)(C[N+](=O)[O-])c3cc(OC(F)(F)F)ccc32)cc1` (stereo not given), in [1], the Emax came out at 75%. This compound also yielded an EC50 in experiment [2] of 1.4 µM.

Take `Cc1cccc(OCCN2C(=O)C(=O)c3cc(OC(F)(F)F)ccc32)c1`: in [1], the Emax was 91%. Further, in experiment [2], the EC50 worked out at 0.53 µM.

With `O=C1C(=O)N(Cc2ccc(Oc3ccccc3)cc2)c2ccc(OC(F)(F)F)cc21`, the EC50 in experiment [8], in experiment [9], in experiment [10] and in experiment [11] was greater than 30 µM each time. Further, in experiment [12], the fold change (FC) came out at 5.

With `Cc1cccc2c1N(CCOc1ccccc1)C(=O)C2=O`, the Emax in experiment [13] came to 31%.

In the case of `COc1ccc(CN2C(=O)C(=O)c3cc(OC(F)(F)F)ccc32)cc1`, the fold change (FC) in [7] was 20; in [12], 14. Further, the EC50 in experiment [8], in experiment [9], in experiment [10] and in [11] was greater than 30 µM each time.

As for `O=C1C(=O)N(CCOc2ccc(Oc3ccccc3)cc2)c2ccc(OC(F)(F)F)cc21`, in experiment [1], the Emax amounted to 93%. This compound also showed an EC50 in experiment [2] of 1.05 µM.

In the case of `Cn1cc(-c2ccc(CN3C(=O)C(=O)c4ccccc43)c(F)c2)cn1`, the EC50 in experiment [8], in [9] and in experiment [10] was greater than 30 µM each time. For the same compound, the Emax in [1] was 45%.

Regarding `COc1ccc(CN2C(=O)C(O)(c3ccc(F)nc3)c3cc(OC(F)(F)F)ccc32)cc1` (stereo not given), in experiment [1], the Emax was 74%. For the same compound, it took 2.2 µM to reach a half-maximal effect in [2] (EC50).

For `O=C1C(=O)N(CCOc2ccc(Cl)cc2)c2ccc(OC(F)(F)F)cc21`, the Emax in [1] came to 92%. In addition, a half-maximal effect in experiment [2] (EC50) was put at 0.45 µM.

With `O=C1C(=O)N(Cc2ccc(Oc3cccc(F)n3)cc2)c2ccc(OC(F)(F)F)cc21`, the EC50 in experiment [8], in [9], in [10] and in experiment [11] was greater than 30 µM in each case. For the same compound, the fold change (FC) in experiment [12] worked out at 6.
